{
  "source": "paper PMC6751184",
  "about": "“Heme and hemoglobin utilization by Mycobacterium tuberculosis” (Nature Communications, 2019)",
  "target": "DppA (Rv3666c), substrate-binding protein of the Dpp transporter (Mycobacterium tuberculosis, UniProt I6X811)",
  "sequence (I6X811 entry or part of it)": "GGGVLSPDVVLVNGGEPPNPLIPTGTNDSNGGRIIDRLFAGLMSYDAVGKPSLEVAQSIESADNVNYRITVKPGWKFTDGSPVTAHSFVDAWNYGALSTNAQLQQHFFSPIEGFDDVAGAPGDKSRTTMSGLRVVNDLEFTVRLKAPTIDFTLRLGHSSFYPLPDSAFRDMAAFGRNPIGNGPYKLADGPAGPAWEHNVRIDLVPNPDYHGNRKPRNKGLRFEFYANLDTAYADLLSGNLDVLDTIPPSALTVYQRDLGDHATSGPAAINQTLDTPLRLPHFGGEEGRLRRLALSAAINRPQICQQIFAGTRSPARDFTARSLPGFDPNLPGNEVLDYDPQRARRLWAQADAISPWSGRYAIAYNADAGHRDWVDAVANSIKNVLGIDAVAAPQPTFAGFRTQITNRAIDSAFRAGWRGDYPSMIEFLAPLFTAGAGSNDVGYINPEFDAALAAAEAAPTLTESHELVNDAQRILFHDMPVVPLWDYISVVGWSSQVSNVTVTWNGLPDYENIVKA",
  "experiment": "[…]; also difference absorption spectroscopy",
  "data": [
    {"smiles": "C=CC1=C(C)C2=Cc3c(C=C)c(C)c4[n]3[Fe]([Cl])[n]3c(c(C)c(CCC(=O)O)c3=CC3=NC(=C4)C(C)=C3CCC(=O)O)=CC1=N2", "note": "[hemin]", "values": [
      {"measurement": "Kd", "result": "~1500", "unit": "nM"}
    ]}
  ]
}
